Article PMC10123561 (Signal Transduction and Targeted Therapy, 2023)
Several values for one entry are separate records, joined by “and”; a condition that tells them apart may be missing. Equal entries are not always repeated. Structures can show the parent of a compound that is named as a salt.

Columns and labels:
SARS-CoV-2 Delta = assay type: cell-based
SARS-CoV-2 Omicron = assay type: cell-based

Structure (SMILES): CCC(CC)COC(=O)[C@H](C)N[P@](=O)(OC[C@H]1O[C@@](C#N)(c2ccc3c(N)ncnn23)[C@H](O)[C@@H]1O)Oc1ccccc1 [Remdesivir]
- EC50 (SARS-CoV-2 Delta): 0.85 µM and 1.11 µM
- EC50 (SARS-CoV-2 Omicron): 1.5 ± 0.2 µM

Structure (SMILES): Cc1c(O)cccc1C(=O)N[C@@H](CSc1ccccc1)[C@H](O)CN1C[C@H]2CCCC[C@H]2C[C@H]1C(=O)NC(C)(C)C [nelfinavir, Nelfinavir Mesylate]
- EC50 (SARS-CoV-2 Delta): 2.09 µM and 1.76 µM
- EC50 (SARS-CoV-2 Omicron): 2.03 µM and 1.73 µM
